# Measured values as given in PubChem BioAssay AID540365 (The Scripps Research Institute Molecular Screening Center, 2011).
# The source made the active and inactive calls. The rule behind the calls is not given here.
# Target: Neuropeptides B/W receptor type 1 (Homo sapiens) (UniProt P48145)
# Assay: NPBW1 receptor blockers in cells – cell-based, fluorescence, dose response, set 3, late-stage follow-up (AID 540365)
# Conditions: GPR7-expressing cells, fluorescence antagonist read-out
Compound,IC50 (run 1),IC50 (run 2),IC50 (run 3)
COc1ccc(Sc2c(Cl)cnn(Cc3cccc4ccccc34)c2=O)cc1,660 nM,1030 nM,
CCOc1ccc(Oc2c(S(C)=O)cnn(Cc3cccc4ccccc34)c2=O)cc1 (centres undefined),2220 nM,2130 nM,2090 nM
C=Cc1nn(Cc2ccccc2C)c(=O)c(Oc2ccc(OC)cc2)c1C=C,418 nM,808 nM,818 nM
COc1ccc(Oc2c(Cl)cnn(Cc3c(F)cccc3F)c2=O)cc1,843 nM,726 nM,719 nM
CCOc1ccc(Oc2c(Cl)c(Br)nn(Cc3cccc4ccccc34)c2=O)cc1,177 nM,237 nM,
COc1ccc(Nc2c(Cl)cnn(Cc3cccc4ccccc34)c2=O)cc1,inactive,9470 nM,> 20000 nM (inactive)
COc1ccc(Oc2c(C#N)cnn(Cc3cccc4ccccc34)c2=O)cc1,1310 nM,1690 nM,2490 nM
COc1ccc(Oc2c(Cl)c(C#N)nn(Cc3ccccc3C)c2=O)cc1,1090 nM,1270 nM,1190 nM
COc1ccc(Oc2c(Cl)cnn(Cc3cccc4cnccc34)c2=O)cc1,3400 nM,4100 nM,4930 nM
COc1ccc(Oc2c(Br)cnn(Cc3cccc4ccccc34)c2=O)cc1,132 nM,242 nM,240 nM

# More lines, now with the values ahead:
IC50 (run 1),IC50 (run 2),IC50 (run 3),Compound
1140 nM,1080 nM,1120 nM,CCCOc1ccc(Oc2c(Cl)cnn(Cc3cccc4ccccc34)c2=O)cc1
480 nM,168 nM,207 nM,CCOc1ccc(Oc2c(Cl)cnn(C3c4ccccc4-c4ccccc43)c2=O)cc1
1320 nM,864 nM,953 nM,CCOC(=O)C(c1ccccc1)n1ncc(Cl)c(Oc2ccc(OC)cc2)c1=O (centres undefined)
1480 nM,1950 nM,2020 nM,COc1ccc(Oc2c(Cl)cnn(Cc3ccc4ccccc4c3)c2=O)cc1
451 nM,597 nM,1310 nM,CCOC(=O)C(c1cccc2ccccc12)n1ncc(Cl)c(Oc2ccc(OC)cc2)c1=O (centres undefined)
580 nM,497 nM,481 nM,COc1ccc(Oc2c(Cl)cnn(C(c3ccccc3)c3ccccc3)c2=O)cc1
> 20000 nM (inactive),> 20000 nM (inactive),> 20000 nM (inactive),CCCOc1ccc(Oc2c(Cl)cnn(C3c4ccccc4-c4ccccc43)c2=O)cc1
